T/C data for 21 molecules are collected here from PubChem BioAssay AID248 (DTP/NCI, 2004).

Inconclusive results and toxic doses are left out.

The subject of the assay is L1210 leukemia ip in BDF1 mice, survival T/C. The assay can be described thus: NCI In Vivo Anticancer Drug Screen. Data for tumor model L1210 Leukemia (intraperitoneal) in B6D2F1 (BDF1) mice. The following applies: endpoint: mean survival time, higher = longer survival. In a few lines: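 Survival endpoint. Drug-treated group vs vehicle group, expressed as T divided by C. Tumor passaged by transplantation.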

Setting [1] is: dose: 50.0 mg/kg/injection, schedule: Q01DX009 (ip), vehicle: saline with Tween-80.
[2] abbreviates: dose: 100.0 mg/kg/injection, schedule: Q01DX009 (ip), vehicle: saline with Tween-80.
Where [3] appears, read: dose: 100.0 mg/kg/injection, schedule: Q01DX001 (ip), vehicle: Klucel (hydroxypropylcellulose) (HPC).
Where [4] appears, read: dose: 100.0 mg/kg/injection, schedule: Q01DX009 (ip), vehicle: Klucel (hydroxypropylcellulose) (HPC).
Where [5] appears, read: dose: 100.0 mg/kg/injection, schedule: Q04DX003 (ip), vehicle: Klucel (hydroxypropylcellulose) (HPC).
The mark [6] stands for this setting: dose: 200.0 mg/kg/injection, schedule: Q01DX009 (ip), vehicle: Klucel (hydroxypropylcellulose) (HPC).
Where [7] appears, read: dose: 200.0 mg/kg/injection, schedule: Q04DX003 (ip), vehicle: Klucel (hydroxypropylcellulose) (HPC).
The mark [8] stands for this setting: dose: 400.0 mg/kg/injection, schedule: Q01DX009 (ip), vehicle: Klucel (hydroxypropylcellulose) (HPC).
The mark [9] stands for this setting: dose: 400.0 mg/kg/injection, schedule: Q04DX003 (ip), vehicle: Klucel (hydroxypropylcellulose) (HPC).
Setting [10] is: dose: 100.0 mg/kg/injection, schedule: Q01DX001 (ip), vehicle: saline.
Where [11] appears, read: dose: 200.0 mg/kg/injection, schedule: Q01DX001 (ip), vehicle: saline.
Setting [12] is: dose: 400.0 mg/kg/injection, schedule: Q01DX001 (ip), vehicle: saline.

As for `CC(=O)Nc1ccc(OC(=O)Nc2ccc(Cl)cc2C(F)(F)F)cc1`, the T/C was 93 % of control under setting [1]; 100 % of control under setting [2]; 104 % of control (dose: 200.0 mg/kg/injection, schedule: Q01DX009 (ip), vehicle: saline with Tween-80).

Consider `COCCOCCOc1ccc(Cl)cc1`, for which the T/C runs as follows: (dose: 100.0 mg/kg/injection, schedule: Q04DX002 (ip), vehicle: saline) 92 % of control; (dose: 200.0 mg/kg/injection, schedule: Q04DX002 (ip), vehicle: saline) 107 % of control; (dose: 400.0 mg/kg/injection, schedule: Q04DX002 (ip), vehicle: saline) 88 % of control.

Regarding `CCOc1c(OC)c2c3c(c(-c4c(C)cc5c(C(C)C)c(OCC)c(OC)c6c5c4OC6OC)c(C)cc3c1C(C)C)OC2OC` (stereo not drawn), the T/C under setting [3] was 94 % of control; the T/C (dose: 200.0 mg/kg/injection, schedule: Q01DX001 (ip), vehicle: Klucel (hydroxypropylcellulose) (HPC)) was 93 % of control; the T/C (dose: 400.0 mg/kg/injection, schedule: Q01DX001 (ip), vehicle: Klucel (hydroxypropylcellulose) (HPC)) was 100 % of control.

Take `OC1(C#CC2(O)c3ccccc3-c3ccccc32)c2ccccc2-c2ccccc21`: the T/C by setting is: under setting [4], 93 % of control; under setting [5], 106 % of control; under setting [6], 97 % of control; under setting [7], 106 % of control; under setting [8], 93 % of control; under setting [9], 100 % of control.

As to `COc1ccc(/C=N/N=c2\[nH][nH]/c(=N\N=C\c3ccc(OC)c4ccccc34)c3ccccc23)c2ccccc12`, the T/C by setting is: (dose: 50.0 mg/kg/injection, schedule: Q01DX001 (ip), vehicle: saline) 100 % of control; under setting [10], 100 % of control; under setting [11], 103 % of control; under setting [12], 105 % of control.

Take `O=C(O)c1cccc(Br)c1`: the T/C runs as follows: (dose: 100.0 mg/kg/injection, schedule: Q04DX002 (ip), vehicle: Klucel (hydroxypropylcellulose) (HPC)) 102 % of control; (dose: 200.0 mg/kg/injection, schedule: Q04DX002 (ip), vehicle: Klucel (hydroxypropylcellulose) (HPC)) 98 % of control; (dose: 400.0 mg/kg/injection, schedule: Q04DX002 (ip), vehicle: Klucel (hydroxypropylcellulose) (HPC)) 102 % of control.

As for `COC1=NS(=O)(=O)C2CCCCCCC2O1` (stereo not drawn), the T/C was 102 % of control (dose: 25.0 mg/kg/injection, schedule: Q01DX001 (ip), vehicle: Klucel (hydroxypropylcellulose) (HPC)); 92 % of control (dose: 25.0 mg/kg/injection, schedule: Q04DX003 (ip), vehicle: Klucel (hydroxypropylcellulose) (HPC)); 94 % of control (dose: 50.0 mg/kg/injection, schedule: Q01DX001 (ip), vehicle: Klucel (hydroxypropylcellulose) (HPC)); 95 % of control (dose: 50.0 mg/kg/injection, schedule: Q04DX003 (ip), vehicle: Klucel (hydroxypropylcellulose) (HPC)); 94 % of control under setting [3]; 95 % of control under setting [5].

Regarding `O=C(NCCF)NC1C(O)OC(CO)C(O)C1O` (stereo not drawn), the T/C under setting [10] is 102 % of control, the T/C under setting [11] is 101 % of control and the T/C under setting [12] was 98 % of control.

On to `CCOC(CN=Cc1cc(C)c2[nH]c3ccc(OC)cc3c2c1C)OCC`, for which the T/C is, setting by setting: (dose: 100.0 mg/kg/injection, schedule: Q01DX001 (ip), vehicle: other) 96 % of control; under setting [5], 98 % of control; (dose: 200.0 mg/kg/injection, schedule: Q01DX001 (ip), vehicle: other) 102 % of control; under setting [7], 96 % of control; (dose: 400.0 mg/kg/injection, schedule: Q01DX001 (ip), vehicle: other) 98 % of control; under setting [9], 96 % of control.

For `CCCCC1CCC(N)CC1` (stereo not drawn), the T/C is, setting by setting: (dose: 25.0 mg/kg/injection, schedule: Q04DX003 (ip), vehicle: saline) 105 % of control; (dose: 50.0 mg/kg/injection, schedule: Q04DX003 (ip), vehicle: saline) 100 % of control; (dose: 100.0 mg/kg/injection, schedule: Q04DX003 (ip), vehicle: saline) 105 % of control.

As to `Cn1c(=S)sc2ccccc21`, the T/C runs as follows: (dose: 25.0 mg/kg/injection, schedule: Q04DX003 (ip), vehicle: saline with Tween-80) 97 % of control; (dose: 50.0 mg/kg/injection, schedule: Q04DX003 (ip), vehicle: saline with Tween-80) 97 % of control; under setting [5], 107 % of control.

As for `Cc1ccc(NC(=O)NCCBr)cc1C`, the T/C was 96 % of control under setting [5], 93 % of control under setting [7] and 95 % of control under setting [9].

As for `Cc1ccc(C(=O)CC(=O)Nc2cc([N+](=O)[O-])ccc2OCCOc2ccc(C(C)(C)CC(C)(C)C)cc2)cc1`, the T/C (dose: 100.0 mg/kg/injection, schedule: Q01DX009 (ip), vehicle: saline sonified) is 100 % of control; the T/C under setting [5] is 112 % of control; the T/C (dose: 200.0 mg/kg/injection, schedule: Q01DX009 (ip), vehicle: saline sonified) is 97 % of control; the T/C under setting [7] was 89 % of control; the T/C (dose: 400.0 mg/kg/injection, schedule: Q01DX009 (ip), vehicle: saline sonified) was 87 % of control; the T/C under setting [9] was 94 % of control.

`COc1ccc(OC)c(NC(=O)Nc2ccccc2C(F)(F)F)c1`: the T/C is 102 % of control under setting [4], 89 % of control under setting [6] and 95 % of control under setting [8].

For `COc1ccc(-c2c([N+](=O)[O-])ccc(Cl)c2[N+](=O)[O-])cc1`, the T/C (dose: 50.0 mg/kg/injection, schedule: Q01DX001 (ip), vehicle: carboxymethylcellulose (CMC)) was 94 % of control; the T/C (dose: 100.0 mg/kg/injection, schedule: Q01DX001 (ip), vehicle: carboxymethylcellulose (CMC)) was 117 % of control; the T/C (dose: 200.0 mg/kg/injection, schedule: Q01DX001 (ip), vehicle: carboxymethylcellulose (CMC)) is 107 % of control; the T/C (dose: 400.0 mg/kg/injection, schedule: Q01DX001 (ip), vehicle: carboxymethylcellulose (CMC)) was 102 % of control.

Turning to `O=[N+]([O-])c1cccc(C=Nc2ccccc2)c1`, the T/C is 112 % of control under setting [5], 96 % of control under setting [7] and 96 % of control under setting [9].

Regarding `Cc1ccc(NC(=S)N(CCC#N)C(C)C)cc1C`, the T/C reads like this: under setting [4], 110 % of control; under setting [6], 106 % of control; under setting [8], 103 % of control.

As to `C=C(C)CSC#N`, the T/C reads like this: (dose: 25.0 mg/kg/injection, schedule: Q01DX009 (ip), vehicle: saline with Tween-80) 101 % of control; under setting [1], 96 % of control; under setting [2], 101 % of control.

On to `CC(C)CNC(=O)Nc1ccccc1C(F)(F)F`, for which the T/C is 95 % of control (dose: 100.0 mg/kg/injection, schedule: Q04DX003 (ip), vehicle: saline with Tween-80); 97 % of control (dose: 200.0 mg/kg/injection, schedule: Q04DX003 (ip), vehicle: saline with Tween-80); 97 % of control (dose: 400.0 mg/kg/injection, schedule: Q04DX003 (ip), vehicle: saline with Tween-80).

With `CN(C)/C=N\c1ncnc2c1ncn2C1OC(CO)C(O)C1O` (stereo not drawn), the T/C was 102 % of control (dose: 100.0 mg/kg/injection, schedule: Q04DX002 (ip), vehicle: saline with Tween-80); 98 % of control (dose: 200.0 mg/kg/injection, schedule: Q04DX002 (ip), vehicle: saline with Tween-80); 102 % of control (dose: 400.0 mg/kg/injection, schedule: Q04DX002 (ip), vehicle: saline with Tween-80).

For the molecule `NC(=O)N(CCCCN(N=O)C(N)=O)N=O`, the T/C is, setting by setting: (dose: 40.0 mg/kg/injection, schedule: Q01DX001 (ip), vehicle: saline with Tween-80) 152 % of control; (dose: 60.0 mg/kg/injection, schedule: Q01DX001 (ip), vehicle: saline with Tween-80) 178 % of control; (dose: 93.0 mg/kg/injection, schedule: Q01DX001 (ip), vehicle: saline with Tween-80) 246 % of control; (dose: 500.0 mg/kg/injection, schedule: Q01DX001 (ip), vehicle: saline with Tween-80) 90 % of control.
